# Experimental data reported in US10654890B2, “Cyclic peptide derivative, method for preparing same and composition thereof” (priority 2014, dated 2020).
# Assays:
# [1] = test system: human liver cancer cells (HepG2); test: Cell proliferation test, human liver cancer cells; format: cell-based; details: 2.5 μM and 25 μM, FIG. 10
# Experimental: To see whether or not the astrocyte proliferation accelerating activity of the cyclic peptide derivative is a specific proliferative activity that is limited only to an astrocyte or it is based on a common cell proliferative activity, investigations were made by using normal human dermal fibroblasts (NHDF), human liver cancer cells (HepG2), and human leukemia cells (K562).
# Seeding of each cell on a 96 well plate was carried out by adding 100 μl of a cell suspension in which normal human dermal fibroblasts are prepared at 2.5×10^4 cells/ml or human liver cancer cells and human leukemia cells are prepared at 5×10^4 cells/ml. Since the cyclic peptide derivative is added after dissolving it in PBS (−), only PBS (−) was added as a control.
# NGF gene = NGF gene expression in culture astrocyte (real time PCR); format: cell-based, mouse; details: 25 μM; from 8 hours to 24 hours after the addition; p<0.05 vs before the addition; calibrated to GAPDH
# Experimental: By adding the cyclic peptide derivative of 25 μM to an astrocyte of the secondary subculture, the influence on expression of the gene of NGF, GDNF, VFGF-A, BDNF, and VGF as a representative neurotrophic factor was determined over time.
# Except that a cell suspension of an astrocyte of the secondary subculture was prepared to have cell concentration of 3×10^5 cells/ml and the time for exposing the astrocyte to the above 25 μM cyclic peptide derivative was set at 0, 1, 2, 4, 8, 12, and 24 hours, the astrocyte was cultured in the same order as above <6>. As a control group, LG-D-MEM (0% FBS) not added with any cyclic peptide derivative was used.
# Each astrocyte which has been exposed to the cyclic peptide derivative during each time described above was collected, and then, by using RNeasy Mini Kit (QIAGEN), extraction and purification of total RNA were carried out. The extracted total RNA was quantified by using Nano Photometer (IMPLEN). For the reverse transcription reaction, cDNA was synthesized by reacting 500 ng of total RNA with PrimeScript RT Master Mix (TaKaRa) at 37° C. for 15 minutes using GeneAmp PCR System 9600 (PERKIN ELMER), and the reaction was terminated by heating for 5 seconds at 85° C. […]
# [2] = test system: senescence-accelerated model mouse SAMP8; test: Morris water maze test; format: in vivo; details: SAMP8, oral 25 μg/kg/day; vs SAMP8; p<0.05
# Description: As a mouse for an in vivo test of the cyclic peptide derivative, senescence-accelerated model mouse SAMP8 which is used as a cognitive disorder model animal of initial Alzheimer's disease accompanied with aging was selected, and as a control, SAMR1 mouse with normal aging was selected.
# 19-Week old male mice of SAMR1 and SAMP8 were purchased from Japan SLC, Inc., and divided into 5 groups, i.e., mouse group with normal aging (SAMR1), senescence-accelerated model mouse group (SAMP8), {P8+donepezil hydrochloride 1250 μg/kg/day} group as a positive control, and {P8+cyclic peptide derivative 2.5 μg/kg/day} group and {P8+cyclic peptide derivative 25 μg/kg/day} group as a test group. […] After 10 days of an acclimation period, all mice were provided with standard meal (MEQ, Oriental Yeast Company) and body weight of the animal was recorded everyday during the entire test period. […]
# (3) {P8+donepezil hydrochloride 1250 μg/kg/day} group: As a positive control, donepezil hydrochloride (Sanyo Chemical Laboratories CO., LTD.) was dissolved in MQ and prepared to have a concentration of 1250 μg/kg (bodyweight), and then orally administered to a SAMP8 for 5 weeks by using a gastric sonde. The concentration was accurately calculated based on the bodyweight which has been measured every day. […]
# Water solubility = format: physicochemical
smiles,measurement,setting,value
CCC1(C)Oc2cc(ccc2O)C(O)C(NC)C(=O)NC(C(C)C)C(=O)NC1C(=O)NC(CCC(=O)O)C(=O)O (stereo not shown) [cyclic peptide derivative],inhibitory activity on cell proliferation,[1],a strong inhibitory activity on cell proliferation was observed
same,expression of the gene of NGF,NGF gene,increased
same,spatial learning ability (time in zone (%) in quadrant 1),[2],significantly recovered
same,water solubility,Water solubility,water soluble
